The values below are quoted from earlier work in patent US20090110646A1, “Product for Treating the Skin and Mucous Membranes, and Relative Method of Preparation” (priority 2005, published 2009).

Turning to `O=C(O)C(Cl)(Cl)Cl` [TCA, trichloracetic acid], for the setting “solution of TCA at about 30-40% w/w”, the “depth of dermal necrosis” value was 0.3-0.5 mm. The effect on skin result (solution of TCA in a concentration of less than 25% w/w) is listed as “exfoliation of the epidermis”. Also, the “time of eschar (crust) until skin renewal” value (very concentrated TCA) is 7 to 10 days.
